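Method: 48-hour compound exposure of cells in 96-well plates, five concentrations, linear interpolation of endpoints. At the GI50, growth is halved.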 The source made the active and inactive calls. No stated cut-off is given here; in the data, active = GI50 up to about 1.1 µM and inactive = higher.
How the values were obtained:
Experiment in all cases: NCI-60 cell line screen, 48 h
SN12C = test system: SN12C
NCI/ADR-RES = test system: NCI/ADR-RES
MDA-MB-231 = test system: MDA-MB-231
OVCAR-5 = test system: OVCAR-5
Malme-3M = test system: Malme-3M
A498 = test system: A498
EKVX = test system: EKVX
PC-3 = test system: PC-3
Hs-578T = test system: Hs-578T
SW-620 = test system: SW-620
SNB-19 = test system: SNB-19
KM12 = test system: KM12
HOP-62 = test system: HOP-62
OVCAR-8 = test system: OVCAR-8
UO-31 = test system: UO-31
RXF 393 = test system: RXF 393
M14 = test system: M14
MDA-MB-435 = test system: MDA-MB-435
MCF7 = test system: MCF7
SK-MEL-2 = test system: SK-MEL-2

Measured: GI50

Nc1nc(NNc2ccc(Cl)c(Cl)c2)cc(=O)[nH]1
inactive: SN12C 38.1 µM | NCI/ADR-RES 47.5 µM | MDA-MB-231 33.8 µM | OVCAR-5 43.4 µM | Malme-3M 46.9 µM | A498 > 100 µM | EKVX 39.2 µM | PC-3 34 µM | Hs-578T 30.5 µM | SW-620 22.8 µM | SNB-19 72.6 µM | KM12 30.8 µM | HOP-62 70.8 µM | OVCAR-8 44.9 µM | UO-31 29.9 µM | RXF 393 25.5 µM | M14 34.2 µM | MDA-MB-435 25.4 µM | MCF7 17.3 µM

O=C(c1ccccc1)c1c2ccccn2c2cccc[n+]12
inactive: SK-MEL-2 > 100 µM | NCI/ADR-RES > 100 µM | MDA-MB-231 > 100 µM | OVCAR-5 > 100 µM | Malme-3M > 100 µM | A498 71.8 µM | EKVX > 100 µM | PC-3 > 100 µM | Hs-578T > 100 µM | SW-620 > 100 µM | KM12 > 100 µM | HOP-62 > 100 µM | OVCAR-8 88.5 µM | RXF 393 > 100 µM | M14 > 100 µM | MDA-MB-435 > 100 µM | MCF7 > 100 µM

C=C(CCOC)CCC1CCCCC(=C)[C@H]1OC(C)=O (stereo partly specified)
inactive: SN12C > 100 µM | SK-MEL-2 > 100 µM | NCI/ADR-RES 78.3 µM | MDA-MB-231 > 100 µM | OVCAR-5 > 100 µM | A498 > 100 µM | EKVX > 100 µM | PC-3 > 100 µM | Hs-578T > 100 µM | SW-620 > 100 µM | SNB-19 > 100 µM | KM12 > 100 µM | HOP-62 > 100 µM | OVCAR-8 > 100 µM | UO-31 > 100 µM | M14 > 100 µM | MDA-MB-435 > 100 µM | MCF7 > 100 µM

O=Cc1cc([N+](=O)[O-])no1
inactive: SN12C 38.9 µM | SK-MEL-2 24.4 µM | NCI/ADR-RES 52.4 µM | MDA-MB-231 26.5 µM | OVCAR-5 71.8 µM | Malme-3M > 10 µM | A498 > 100 µM | PC-3 24.7 µM | Hs-578T 46.6 µM | SW-620 14.8 µM | SNB-19 92.9 µM | KM12 18.7 µM | HOP-62 38.1 µM | OVCAR-8 41 µM | UO-31 > 100 µM | RXF 393 > 100 µM | M14 17.1 µM | MDA-MB-435 15.2 µM | MCF7 22 µM

Cc1ccc2c(c1)SC1=Nc3sc4cc(C)ccc4[n+]3CN12
inactive: SN12C 7.16 µM | SK-MEL-2 3.51 µM | NCI/ADR-RES 34.4 µM | MDA-MB-231 10.8 µM | OVCAR-5 18.3 µM | A498 11.1 µM | PC-3 15.4 µM | Hs-578T 6.87 µM | SW-620 10.4 µM | SNB-19 3.24 µM | HOP-62 9.57 µM | OVCAR-8 3.04 µM | UO-31 35.6 µM | RXF 393 78.5 µM | M14 3.59 µM | MDA-MB-435 4.22 µM | MCF7 4.44 µM
active: Malme-3M 0.568 µM | EKVX 0.687 µM

COC1=CC(=O)c2nc3ccccc3c3ccnc1c23
active: SW-620 1.03 µM | MDA-MB-435 0.187 µM
inactive: SN12C 6.82 µM | SK-MEL-2 5.64 µM | NCI/ADR-RES 3.71 µM | MDA-MB-231 7.8 µM | OVCAR-5 12.5 µM | Malme-3M 1.58 µM | EKVX 12.6 µM | PC-3 1.81 µM | Hs-578T 5.48 µM | SNB-19 12.4 µM | KM12 4.04 µM | HOP-62 5.74 µM | OVCAR-8 3.26 µM | UO-31 4.35 µM | RXF 393 2.61 µM | M14 2.9 µM | MCF7 1.95 µM

COC(=O)c1cc2c(c(C(=O)OC)c1)CCC2
inactive: SK-MEL-2 > 100 µM | NCI/ADR-RES 59.8 µM | MDA-MB-231 82.8 µM | OVCAR-5 > 100 µM | Malme-3M > 100 µM | A498 63.7 µM | EKVX > 100 µM | PC-3 68.5 µM | Hs-578T > 100 µM | SW-620 > 100 µM | SNB-19 > 100 µM | HOP-62 > 100 µM | OVCAR-8 > 100 µM | UO-31 85.7 µM | RXF 393 82.6 µM | M14 > 100 µM | MDA-MB-435 > 100 µM | MCF7 > 100 µM

Cc1c(/C=N/NC(=S)Nc2ccccc2)c(=O)n(-c2ccccc2)n1C
inactive: SK-MEL-2 > 100 µM | NCI/ADR-RES 22.1 µM | MDA-MB-231 > 100 µM | A498 71.4 µM | EKVX > 100 µM | PC-3 > 100 µM | Hs-578T > 100 µM | SW-620 > 100 µM | SNB-19 > 100 µM | KM12 > 100 µM | HOP-62 > 100 µM | OVCAR-8 > 100 µM | UO-31 57.5 µM | RXF 393 > 100 µM | M14 > 100 µM | MDA-MB-435 > 100 µM | MCF7 > 100 µM
